Assay results reported in patent US7915022B2, “Carbonyl reductase, gene thereof and method of using the same” (priority 2004, dated 2011).

Legend:
[1] = system: polypeptide consisting of the amino acid sequence shown in SEQ ID NO: 3 (carbonyl reductase), cell-free extract of E. coli HB101 (pNTOM3); assay: Substrate specificity of polypeptide produced by transformant E. coli HB101 (pNTOM3); type: biochemical, Ogataea minuta var. minuta NBRC0975; settings: 1 mM substrate, 0.25 mM NADPH, pH 6.5, 30° C., 1 min; relative to activity on CBPB as 100%
Procedure: (§1) In 100 mM phosphate buffer (pH 6.5) containing 0.33% (v/v) dimethyl sulfoxide were dissolved a carbonyl compound to be a substrate to a final concentration of 1 mM, and a coenzyme NADPH to a final concentration of 0.25 mM, respectively. Thereto was added a cell-free extract of E. coli HB101 (pNTOM4) or E. coli HB101 (pNTOM3) prepared in Example 7, and the mixture was reacted at 30° C. for 1 min. The reduction activity on each carbonyl compound was calculated from the rate of decrease in the absorbance of the reaction mixture at a wavelength of 340 nm, and shown in Table 2 as a value relative to the activity on (3S)-1-chloro-3-tert-butoxycarbonylamino-4-phenyl-2-butanone as 100%.

[2] = system: polypeptide consisting of the amino acid sequence shown in SEQ ID NO: 4 (carbonyl reductase), cell-free extract of E. coli HB101 (pNTOM4); assay: Substrate specificity of polypeptide produced by transformant E. coli HB101 (pNTOM4); type: biochemical, Ogataea minuta var. minuta NBRC0975; settings: 1 mM substrate, 0.25 mM NADPH, pH 6.5, 30° C., 1 min; relative to activity on CBPB as 100%
Procedure: as §1

| Structure (SMILES) | relative activity (%) E. coli HB101 (pNTOM3) [1] [%] | relative activity (%) E. coli HB101 (pNTOM4) [2] [%] |
| --- | --- | --- |
| CC(=O)c1ccccc1 [acetophenone] | 215 | 0 |
| CCOC(=O)CC(=O)c1ccccc1 [ethyl benzoylacetate] | 1233 | 0 |
| O=C1CCCC1 [cyclopentanone] | 8 | 0 |
| CC(=O)c1cccnc1 [3-acetylpyridine] | 15 | 0 |
| CCC=O [propionaldehyde] | 99 | 0 |
| O=C(c1ccccc1)C(O)c1ccccc1 (centres unmarked) [benzoin] | 4018 | 5 |
| CCOC(=O)CC(C)=O [ethyl acetoacetate] | 137 | 0 |
| O=Cc1ccccn1 [2-pyridinecarbaldehyde] | 56 | 1 |
| CC(=O)CC(C)=O [acetylacetone] | 23 | 0 |
| CCOC(=O)CC(=O)CCl [ethyl 4-chloroacetoacetate] | 4547 | 22 |
| CCC(C)=O [2-butanone] | 22 | 0 |
| CCOC(=O)CC(=O)COCc1ccccc1 [ethyl 4-benzyloxyacetoacetate] | 1259 | 8 |
| COC(=O)C(C)=O [methyl pyruvate] | 674 | 5 |
| O=Cc1ccccc1 [benzaldehyde] | 81 | 1 |
| COC(=O)CC(C)=O [methyl acetoacetate] | 8 | 0 |
| CCOC(=O)CC(=O)CN=[N+]=[N-] [ethyl 4-azideacetoacetate] | 659 | 1 |
| CC(C=O)c1ccccc1 (centres unmarked) [2-phenylpropionaldehyde] | 479 | 3 |
| CCC(=O)c1ccccc1 [propiophenone] | 183 | 2 |
| CCC(=O)Cc1ccccc1 [1-phenyl-2-butanone] | 285 | 2 |
| CC(=O)CC(=O)OCc1ccccc1 [benzyl acetoacetate] | 883 | 4 |
| CC(=O)C(C)=O [diacetyl] | 444 | 5 |
| CC(=O)c1ccncc1 [4-acetylpyridine] | 98 | 0 |

| Structure (SMILES) | relative activity (%) E. coli HB101 (pNTOM3) [1] [%] | relative activity (%) E. coli HB101 (pNTOM4) [2] [%] |
| --- | --- | --- |
| CC(=O)CO [hydroxyacetone] | 51 | 0 |
| CC(=O)c1ccc(F)cc1 [4′-fluoroacetophenone] | 28 | 1 |
| CC(=O)c1cnccn1 [acetylpyrazine] | 185 | 0 |
| O=Cc1cccc([N+](=O)[O-])c1 [m-nitrobenzaldehyde] | 851 | 29 |
| CCCCCCCCC(=O)C(=O)OCC [ethyl 2-oxodecanoate] | 985 | 5 |
| CC(=O)c1cccc(O)c1 [3′-hydroxyacetophenone] | 33 | 0 |
| CCOC(=O)C(=O)CCc1ccccc1 [ethyl 2-oxo-4-phenylbutyrate] | 127 | 106 |
| CCOC(=O)C(C)C(C)=O (centres unmarked) [ethyl 2-methylacetoacetate] | 619 | 4 |
| CCCC=O [n-butylaldehyde] | 168 | 0 |
| O=CCCCC=O [glutaraldehyde] | 80 | 1 |
| O=Cc1ccc([N+](=O)[O-])cc1 [p-nitrobenzaldehyde] | 1166 | 21 |
| O=CCCc1ccccc1 [3-phenylpropionaldehyde] | 2410 | 7 |
| CCCCCCC(C)=O [2-octanone] | 808 | 3 |
| CC(C)=O [acetone] | 47 | 0 |
| CC(=O)c1ccc(C)cc1 [4′-methylacetophenone] | 41 | 1 |
| CC(=O)CCc1ccccc1 [benzylacetone] | 66 | 0 |
| CC(=O)c1cccc([N+](=O)[O-])c1 [3′-nitroacetophenone] | 273 | 31 |
| O=C(CCl)c1cccc(Cl)c1 [2-chloro-1-(3′-chlorophenyl)ethanone] | 1301 | 33 |
| CCOC(=O)C(Cl)C(C)=O (centres unmarked) [ethyl 2-chloroacetoacetate] | 3309 | 40 |
| C=CC(C(C)=O)C(=O)OCC (centres unmarked) [ethyl 2-eteneacetoacetate] | 2013 | 10 |
| CCOC(=O)C(Cl)C(=O)c1ccccc1 (centres unmarked) [ethyl 2-chloro-3-oxo-3-phenylpropionate] | 716 | 5 |
